Among the data in ChEMBL document CHEMBL4376861, “Docking Finds GPCR Ligands in Dark Chemical Matter” (J Med Chem, 2020) are inhibition and Ki values, retold here.

SMILES strings stand for the structures.

The target in assay [1] is T1, Adenosine receptor A2a (Homo sapiens, UniProt P29274). As to the kind of experiment: Displacement of [3H]ZM241385 from adenosine A2A receptor in human HeLa cell membranes at 10 uM incubated for 30 mins by scintillation counting method relative to control. (In general: In a radioligand displacement assay an active substance lowers the binding of a labelled ligand.)
T1 sequence (P29274 whole entry): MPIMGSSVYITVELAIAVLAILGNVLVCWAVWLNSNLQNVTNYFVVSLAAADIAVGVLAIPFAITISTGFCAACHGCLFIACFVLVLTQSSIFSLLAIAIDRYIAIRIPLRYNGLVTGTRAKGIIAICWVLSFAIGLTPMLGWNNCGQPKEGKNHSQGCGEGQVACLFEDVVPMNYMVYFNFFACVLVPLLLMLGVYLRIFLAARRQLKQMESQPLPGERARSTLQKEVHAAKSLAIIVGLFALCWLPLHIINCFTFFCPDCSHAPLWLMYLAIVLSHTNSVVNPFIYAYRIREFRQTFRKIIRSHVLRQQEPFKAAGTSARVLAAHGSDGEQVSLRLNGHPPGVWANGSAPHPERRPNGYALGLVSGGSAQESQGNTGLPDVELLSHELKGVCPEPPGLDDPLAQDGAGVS
The target in assay [2] is T2, D(4) dopamine receptor (Homo sapiens, UniProt P21917).
T2 sequence (P21917 whole entry): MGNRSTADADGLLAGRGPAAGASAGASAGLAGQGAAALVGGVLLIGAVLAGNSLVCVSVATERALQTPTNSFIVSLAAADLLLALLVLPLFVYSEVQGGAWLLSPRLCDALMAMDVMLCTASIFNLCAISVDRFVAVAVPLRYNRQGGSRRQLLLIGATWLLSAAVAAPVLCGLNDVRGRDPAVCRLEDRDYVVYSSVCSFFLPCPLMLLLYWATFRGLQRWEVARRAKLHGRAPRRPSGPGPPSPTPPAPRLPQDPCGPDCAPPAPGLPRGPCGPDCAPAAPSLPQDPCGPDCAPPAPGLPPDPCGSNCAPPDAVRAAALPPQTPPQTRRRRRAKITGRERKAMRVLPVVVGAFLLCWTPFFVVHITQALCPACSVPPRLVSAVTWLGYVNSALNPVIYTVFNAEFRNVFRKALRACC
The assay can be described thus: Displacement of [3H]spiperone from human dopamine D4 receptor expressed in cell membranes incubated for 60 mins by scintillation counting method.

Assay [3] addresses T3, Adenosine receptor A1 (Homo sapiens) (UniProt P30542).
T3 sequence (whole entry): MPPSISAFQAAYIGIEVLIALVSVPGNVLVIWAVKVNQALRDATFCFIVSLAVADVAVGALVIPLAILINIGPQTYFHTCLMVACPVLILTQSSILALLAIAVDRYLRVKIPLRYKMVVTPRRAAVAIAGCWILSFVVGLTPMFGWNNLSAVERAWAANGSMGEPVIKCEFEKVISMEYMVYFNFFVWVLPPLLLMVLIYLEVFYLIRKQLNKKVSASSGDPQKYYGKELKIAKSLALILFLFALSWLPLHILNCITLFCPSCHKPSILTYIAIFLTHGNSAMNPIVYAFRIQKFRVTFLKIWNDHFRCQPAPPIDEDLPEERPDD
As to the kind of experiment: Displacement of [3H]DPCPX from human adenosine […] receptor expressed in […] cell membranes at 10 uM incubated for 60 mins by scintillation counting method relative to control.

For assay [4], the target named is T4, D(3) dopamine receptor (Homo sapiens, UniProt P35462). The assay can be described thus: Displacement of [3H]spiperone from human dopamine D3 receptor expressed in cell membranes incubated for 60 mins by scintillation counting method.
T4 sequence (P35462 whole entry): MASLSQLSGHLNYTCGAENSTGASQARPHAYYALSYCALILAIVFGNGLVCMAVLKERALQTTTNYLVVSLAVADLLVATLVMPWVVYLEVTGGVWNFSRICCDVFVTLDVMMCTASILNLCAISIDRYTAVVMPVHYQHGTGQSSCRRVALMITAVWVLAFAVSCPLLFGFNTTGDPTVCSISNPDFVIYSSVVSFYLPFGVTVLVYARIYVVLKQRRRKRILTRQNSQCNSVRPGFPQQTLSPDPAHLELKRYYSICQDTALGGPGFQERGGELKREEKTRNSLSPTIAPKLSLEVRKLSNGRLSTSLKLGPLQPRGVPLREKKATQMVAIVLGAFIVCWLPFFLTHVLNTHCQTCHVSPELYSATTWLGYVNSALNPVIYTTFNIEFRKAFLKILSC
The target of assay [5] is T1, Adenosine receptor A2a. The assay can be described thus: Displacement of [3H]ZM241385 from adenosine A2A receptor in human HeLa cell membranes incubated for 30 mins by scintillation counting method.
Assay [6] concerns the target T5, D(4) dopamine receptor (Homo sapiens) (UniProt P21917).
T5 sequence (whole entry): T2 sequence (P21917 whole entry)
The assay can be described thus: Displacement of [3H]spiperone from human dopamine D4 receptor expressed in cell membranes at 10 uM incubated for 60 mins by scintillation counting method relative to control.

Assay [7] has as its target T6, Adenosine receptor A1 (Homo sapiens, UniProt P30542).
T6 sequence (P30542 whole entry): T3 sequence (whole entry)
The assay can be described thus: Displacement of [3H]DPCPX from human adenosine […] receptor expressed in […] cell membranes incubated for 60 mins by scintillation counting method.

For assay [8], the target named is T4, D(3) dopamine receptor. The assay can be described thus: Displacement of [3H]spiperone from human dopamine D3 receptor expressed in cell membranes at 10 uM incubated for 60 mins by scintillation counting method.

For the compound `Cc1cccc2cc(CNCc3ccccc3)c(Cl)nc12`, the inhibition in assay [1] and in assay [3] was 13% throughout. For the same compound, the Ki (in general, the dissociation constant of the complex between target and ligand, obtained from inhibition or displacement) is 550 nM in assay [2] and 1600 nM in assay [4].
Take `Nc1nc(-c2ccccc2)nn1C(=O)c1ccco1`: the Ki was 130 nM in assay [5] and 36 nM in assay [7]. In addition, the figures for the inhibition in assay [6] and in assay [8] were 7% and 4%, respectively.
In the case of `Cc1ccc(C(=O)C2CCN(CC(=O)NC3CCCC3)CC2)cc1`, the values for the inhibition in assay [1] and in assay [3] were 7% and 19%, respectively. In addition, the Ki in assay [2] was determined as 420 nM; in assay [4], 11000 nM.
With `CCOC(=O)c1nc(N)c(=O)n(-c2ccccc2)n1`, the figures for the Ki in assay [5] and in assay [7] were 4900 nM and 2200 nM, respectively. For the same compound, the inhibition (as a rule, the percentage by which the read-out fell short of the control) was 12% in assay [6] and 6% in assay [8].
